Measured values published in patent publication US6031006A, “Method of treating diabetic nephropathy” (BioNumerik Pharmaceuticals, Inc., priority 1999, dated 2000).

Key:
[1] = accepted value; cited from earlier work
humans = conditions: cited from earlier work
mice = conditions: intravenous; cited from earlier work
[2] = molecular target: T1, aldose reductase (human recombinant, expressed in SF 9 cells) (Homo sapiens, UniProt P15121); test: Aldose reductase assay, reduction of glucose to sorbitol (NADPH oxidation, absorbance at 340 nm); type: biochemical
Method: (§1) Aldose reductase assays were as described in Nishimura C., Yamaoka T., Mizutani M., Yamashita K., Akera T., Tanimoto T., Purification And Characterization Of The Recombinant Human Aldose Reductase Expressed In Baculovirus System, Biochem. Biophys. Acta, Jun. 24, 1991; 1078(2):171-8.
(§2) Briefly, Dimesna (0-20 μM) was incubated at 37° C. with aldose reductase (0.0016 units, human recombinant, expressed in SF 9 cells) and NADPH (0.15 mM) in sodium phosphate buffer (100 mM, pH 6.2). To initiate assays, glucose (10-150 mM) was added to reactions and the decrease in absorbance at 340 nm (oxidation of NADPH) was monitored. Assays were run in duplicate or triplicate. Slopes were calculated using Varian-Cary software package 2.0 and averaged. In all cases errors were 4% or less. Lineweaver Burk analysis (Enzyme Kinetics, version 1.61) was used to calculate inhibition constants.

dogs = conditions: intravenous; cited from earlier work
[3] = molecular target: T1, aldose reductase (human recombinant, expressed in SF 9 cells); test: Aldose reductase assay, NADPH dependent reduction of glyceraldehyde; type: biochemical; conditions: substrate glyceraldehyde 0.050-6 mM, 37° C., Lineweaver Burk analysis, read-out: Ki, inhibition of aldose reductase catalyzed reduction of glyceraldehyde to aldose
Method: as §1, §2
Aldose reductase assays were as described above. Dimesna (0-30 mM) was evaluated for its effect on the NADPH dependent reduction of glyceraldehyde (0.050-6 mM) to aldose at 37° C. Assays were run in duplicate or triplicate. Slopes were calculated using Varian-Cary software package 2.0 and averaged. In all cases errors were 4% or less. Lineweaver Burk analysis (Enzyme Kinetics, version 1.61) was used to calculate inhibition constants.

Row | SMILES | oral LD50 [1] [mg/kg] | Dose administered with no adverse effects (humans) | Dose administered with no adverse effects (mice) [mg/kg] | Type of inhibition of the aldose reductase reaction ([2]; Lineweaver Burk plots nearly parallel, glucose and glyceraldehyde substrates) | Ki ([2]; substrate glucose 10-150 mM, NADPH 0.15 mM, pH 6.2, 37° C., Lineweaver Burk analysis, read-out: Ki, inhibition of aldose reductase catalyzed reduction of glucose to sorbitol) [µM] | Dose administered with no adverse effects (dogs) [mg/kg] | Ki [3] [µM]
1 | [Cl-].[Na+] [common table salt] | 3750 | – | – | – | – | – | –
2 | O=S(=O)([O-])CCSSCCS(=O)(=O)[O-].[Na+].[Na+] [Dimesna, disodium 2,2'-dithiobis ethane sulfonate] | – | exceeding 15 g/m^2 | > 3750 | uncompetitive inhibition | 32 | > 3750 | 15.5
